# Measured values reported in US20250382583A1, “ENHANCED METHODS FOR INDUCING AND MAINTAINING NAIVE HUMAN PLURIPOTENT STEM CELLS” (Washington University, priority 2021, published 2025).
# What was measured:
# p-ERK1/2 = settings: stated as known; cited from earlier work
# H9-naïve hESCs [1] = test: Extended maintenance assay, flow cytometry for naïve-specific CD75 and SUSD2; format: cell-based, human; settings: serum-free media supplemented with XGY, 2.5 μM compound
# Procedure: (§1) Defining alternative naïve maintenance media: To define the activity of selected hit compounds during extended naïve culture, naïve hESCs derived from the primed state and maintained in 5i/L/A were dissociated with Accutase (Thermo Fischer Scientific, A1110501) and 1.5×10^5 single cells were seeded in 5i/L/A media on MEF-coated plates. After 24 hours, 5i/L/A media were switched to experimental maintenance conditions to validate hits from the screen. After 4-6 days the cells were split in a 1:2 or 1:3 ratio and further maintained for 4-6 days before analysis by FACS, qRT-PCR, AP staining, and/or RNA-seq. 5i/L/A media in which the MEK inhibitor PD0325901 was replaced with 5 μM AZ628 are represented as alternative 5i/L/A (a5i/L/A). FXGY, AXGY, AXGYU, PXGY, and GXGY media were prepared in serum-free N2B27 media supplemented with 1 μM PD166866, 5 μM AZ628, 5 μM AZ628 and 1 μM UNC0638, 1 μM PD0325901, and 5 μM GDC-0994, respectively, together with 2 μM XAV939, 2 μM Gö6983, and 10 μM Y-27632. During these assays cells were fed with fresh media every second day and cultured in 5% O2, 5% CO2 at 37° C. Detailed information on conditions used for defining alternative naïve maintenance media can be found in Tables 1-6.
# Flow cytometry: Primed hESCs were single-cell dissociated using TrypLE Express, while Accutase was used for naïve hESCs. Cells were resuspended in fibroblast medium and centrifuged. Cell pellets were washed in 5 mL ice-cold PBS. The cells were then resuspended in […] fresh ice-cold FACS buffer (PBS supplemented with 5% FBS), and incubated with antibodies for 30 minutes on ice in the dark. The following antibodies were used: anti-SUSD2-PE (1:100), anti-CD75-eFluor 660 (1:100), anti-CD90-PE (1:100), anti-ITGA6-FITC (1:100) and EGFR-APC (1:25). Post-incubation the cells were washed once with 1 mL ice-cold PBS, resuspended in fresh 500 μl FACS buffer, and passed through a […] cell strainer into round bottom FACS tubes (Corning, #352235). Flow cytometry was performed using a BD LSRFortessa X-20 and the data were analyzed using the FlowJo software.
# [2] = test system: WIBR3 OCT4-ΔPE-GFP+-naïve hESCs; test: Extended maintenance assay, OCT4-ΔPE-GFP reporter activity (imaging, qRT-PCR); format: cell-based, human; settings: in the presence of ROCK inhibitor (Y) alone; 2.5 and 5 μM; two passages
# Procedure: as §1
# (§2) Quantitative reverse transcriptase PCR (qRT-PCR): Total RNA was isolated using the E.Z.N.A. total RNA kit I and cDNA synthesis was performed from total RNA using the high-capacity cDNA reverse transcription kit (Applied Biosystems, 4368814). qRT-PCR was performed using PowerUp SYBR Green Master Mix (Applied Biosystems, A25743) on the StepOnePlus Real-Time PCR System (Applied Biosystems). Gene expression was normalized to RPLP0 and analyzed using the ΔCt method. Error bars represent the standard deviation (SD) of the mean of technical replicates.
# For this purpose, WIBR3 OCT4-ΔPE-GFP+-naïve hESCs that were generated in the absence of reprogramming transgenes were used using the 5i/L/A cocktail. […] Compounds were tested at two different concentrations (2.5 and 5 μM), and cells were maintained for two passages (FIG. 2A).
# H9-naïve hESCs [3] = test: qRT-PCR for naïve-specific transcripts (KLF17, DNMT3L) during naïve maintenance; format: cell-based, human; settings: in XAV/Gö/Y; KLF17 and DNMT3L
# Procedure: as §1, §2
structure (smiles),measurement,setting,value
"Cn1nccc1Nc1nccc(-c2ccn([C@H](CO)c3ccc(Cl)c(F)c3)c(=O)c2)n1 [GDC-0994, (S)-1-(1-(4-chloro-3-fluorophenyl)-2-hydroxyethyl)-4-(2-((1-methyl-1H-pyrazol-5-yl)amino)pyrimidin-4-yl)pyridin-2(1H)-one]",effect on phosphorylation of cellular ERK1/2,p-ERK1/2,not to alter
same,sustaining CD75/SUSD2-positive cells over multiple passages,H9-naïve hESCs [1],robustly sustained
same,activity in maintaining OCT4-ΔPE-GFP reporter activity after passaging,[2],showed activity
same,concentration effective to maintain expression of naïve-specific transcripts (titration),H9-naïve hESCs [3],5 µM
